Data taken from patent US20220143006A1, “METHODS OF TREATING CANCER WITH FARNESYLTRANSFERASE INHIBITORS” (Kura Oncology, Inc., priority 2019, published 2022).
“Also recorded” adds a separate entry of the source.

Key:
tumors in nude mice = conditions: cited from earlier work
[1] = system: Ras-dependent and -independent malignant tumors; conditions: cited from earlier work
[2] = system: relapsed or refractory Peripheral T-Cell Lymphoma (PTCL); test: Phase 2 clinical study of tipifarnib in PTCL (NCT02464228): objective response by KIR mutation status, PTCL-NOS and AITL patients together; type: in vivo, human
Description: (§1) This example describes an ongoing Phase 2 clinical study of tipifarnib with the primary objective being to assess the antitumor activity in terms of Overall Response Rate (ORR) of tipifarnib in approximately 18-30 eligible subjects eligible subjects with Peripheral T-Cell Lymphoma (PTCL) (ClinicalTRials.gov identifier: NCT02464228).
(§2) Subjects receive tipifarnib administered at a starting dose of 300 mg, orally with food, twice a day (bid) on Days 1-21 in 28 day cycles (i.e. 3 weeks on/1 week off). Stepwise 100 mg dose reductions to control treatment-related, treatment-emergent toxicities were also allowed. Subjects who received tipifarnib bid on days 1-7 and days 15-21 in 28 day cycles during the conduct of earlier versions of this protocol were permitted to remain on that dose regimen at the discretion of the investigator. Alternatively, the subject was permitted to transition to receive a dose of 300 mg, orally with food, bid on days 1-21 of 28 day treatment cycles beginning on Day 1 of their next cycle. In the absence of unmanageable toxicities, subjects may continue to receive tipifarnib treatment for up to 12 months in the absence of disease progression and unmanageable toxicity. Treatment was permitted to continue beyond 12 months upon agreement of the Investigator and Sponsor.
(§3) Tumor assessments are performed at screening, at the Day 22 visit (±5 days) performed during Cycles 2, 4, 6 and once every approximately 12 weeks (cycles 9, 12, 15, etc.) thereafter, until disease progression.
(§4) Determination of objective tumor response is performed based on the Lugano Classification (Cheson 2014, Appendix II: The Lugano Classification) and/or measurable cutaneous disease according to the modified Severity Weighted Assessment Tool (mSWAT, Olsen 2011, Appendix III: Modified Severity Weighted Assessment Tool).
(§5) Primary outcome measures: objective response rate (ORR) following treatment with tipfarnib. [Time Frame: 2 years]. Response assessments according to IWC and/or mSWAT.
(§6) This Phase II study investigates the antitumor activity in terms of ORR of tipifarnib in approximately 18-30 eligible subjects with relapsed or refractory PTCL. The first 18 subjects were permitted to have the following PTCL sub-types: PTCL, not otherwise specified (PTCL-NOS), angioimmunoblastic T-cell lymphoma (AITL), ALK-positive and -negative anaplastic large cell lymphoma (ALCL), hepatosplenic T-cell lymphoma, enteropathy-associate T-cell lymphoma (EATL), extranodal natural killer (NK) T-cell lymphoma, nasal type and subcutaneous panniculitis-like T-cell lymphoma. The AITL expansion cohort (N=12) enrolls only subjects with AITL. Only consented subjects who meet all eligibility criteria were enrolled in the study. Eligible subjects received tipifarnib administered at a starting dose of 300 mg, orally with food, twice a day (bid) on Days 1-21 in 28 day cycles (i.e. 3 weeks on/1 week off). Stepwise 100 mg dose reductions to control treatment-related, treatment-emergent toxicities were also allowed. Subjects who received tipifarnib bid on days 1-7 and days 15-21 in 28 day cycles during the conduct of earlier versions of this protocol were permitted to remain on that dose regimen at the discretion of the investigator. Alternatively, the subject was permitted to transition to receive a dose of 300 mg, orally with food, bid on days 1-21 of 28 day treatment cycles beginning on Day 1 of their next cycle. In the absence of unmanageable toxicities, subjects may continue to receive tipifarnib treatment for up to 12 months in the absence of disease progression and unmanageable toxicity. Treatment was permitted to continue beyond 12 months upon agreement of the Investigator and Sponsor.
(§7) A two-stage study design was used for the first 18 subjects in order to minimize the number of study subjects treated if tipifarnib were considered not sufficiently efficacious to grant further development in this subject population. […]

[3] = system: angioimmunoblastic T-cell lymphoma (AITL); test: Phase 2 clinical study of tipifarnib in PTCL: objective response by KIR mutation status, AITL patients; type: in vivo, human
Description: as §1, §2, §3, §4, §5, §6, §7

[4] = system: PTCL, not otherwise specified (PTCL-NOS); test: Phase 2 clinical study of tipifarnib in PTCL: objective response by KIR mutation status, PTCL-NOS patients; type: in vivo, human; conditions: FIG. 6, PTCL-NOS patients (N=9) with Q386E mutant of KIR3DL2
Description: as §1, §2, §3, §4
Primary outcome measures: objective response rate (ORR) following treatment with tipfarnib. [Time Frame: 2 years]. Response assessments according to IWC and/or mSWAT. […]

[5] = system: unselected tumor populations (AML, MDS/CMML, urothelial cancer, breast cancer, PTCL/CTCL); conditions: single agent therapy, in man; cited from earlier work
[6] = FIG. 6, 14 patients with Q386E mutant of KIR3DL2 (PTCL-NOS N=9, AITL N=5)
[7] = FIG. 6, patients (N=13) with wild type (wt) KIR3DL2 at position 386
[8] = AITL, KIR3DL2 C336R/Q386E mutant, N=8
[9] = FIG. 1, 9 AITL patients, carriers of D184N mutant of KIR2DL1
[10] = FIG. 2, 9 AITL patients, carriers of E295D mutant of KIR2DL3
[11] = FIG. 2, 9 AITL patients, carriers of R162T mutant of KIR2DL3
[12] = FIG. 3, 9 AITL patients, carriers of Q149K, Q149R, and I154M mutants of KIR2DL4
[13] = FIG. 5, 9 AITL patients, carriers of C336R and Q386E mutants of KIR3DL2
[14] = FIG. 6, AITL patients (N=5) with Q386E mutant of KIR3DL2
[15] = FIG. 7, subset of 10 AITL patients, carriers of C336R and Q386E mutants of KIR3DL2

With `CC[C@H](C)[C@@H](CO[C@@H](Cc1ccccc1)C(=O)N[C@@H](CCS(C)(=O)=O)C(=O)O)NC[C@@H](N)CS` [L-739749, 2(S)-[2(S)-[2(R)-amino-3-mercapto]propylamino-3(S)-methyl]-pentyloxy-3-phenylpropionyl-methionine sulfone] as the molecule, how does the system toxicity (tumors in nude mice; mouse, in vivo) read?
Its system toxicity is “without system toxicity”.

What about the antitumor activity (tumors in nude mice; nude mice) of the same molecule?
Its antitumor activity is “potent antitumor activity”.

Which “activity in malignant tumors” value [1] does the source give for `NC(=O)N1CCC(CC(=O)N2CCC([C@H]3c4ncc(Br)cc4CCc4cc(Cl)cc(Br)c43)CC2)CC1` [lonafarnib, (+)-(R)-4-[2-[4-(3,10-dibromo-8-chloro-5,6-dihydro-11H-benzo[5,6]cyclohepta[1,2-b]pyridin-11-yl)piperidin-1-yl]-2-oxoethyl]piperidine-1-carboxamide] here?
Its value is “active”.

For `Cn1cncc1[C@@](N)(c1ccc(Cl)cc1)c1ccc2c(c1)c(-c1cccc(Cl)c1)cc(=O)n2C` [tipifarnib, (B)-6-[amino(4-chlorophenyl)(1-methyl-1H-imidazol-5-yl)methyl]-4-(3-chlorophenyl)-1-methyl-2(1H)-quinolinone], which ORR [2, 6] is on record?
The ORR was 36%.

And the “objective responses: number of CRs” value [2, 6]?
The value was 3.

And the “objective responses: number of PDs” value [2, 6]?
The value was 8.

And the “objective responses: number of PRs” value [2, 6]?
The value was 2.

And the “objective responses: number of SD” value [2, 6]?
The value was 1.

What about the ORR [2, 7] of the same molecule?
Its ORR is 8%.

What about the “objective responses: number of PD” value [2, 7] of the same molecule?
The value was 9.

And the “objective responses: number of PR” value [2, 7]?
Its value is 1.

And the “objective responses: number of SD” value [2, 7]?
The value was 3.

What about the “Clinical Benefit Rate (CR + PR + SD), patients/N” value ([3]; AITL, KIR3DL2 C336R/Q386E mutant) of the same molecule?
Its value is 8/8.

What about the “Clinical Benefit Rate (CR + PR + SD)” value [3, 8] of the same molecule?
The value was 100%.

What about the “Overall Best Response: Complete Response (CR), number of patients” value [3, 8] of the same molecule?
The value was 4.

What about the “Overall Best Response: Partial Response (PR), number of patients” value [3, 8] of the same molecule?
The value was 2.

And the “Overall Best Response: Stable Disease (SD), number of patients” value [3, 8]?
The value was 2.

What about the “Overall Response Rate (CR + PR)” value [3, 8] of the same molecule?
The value was 75%.

What about the “Clinical Benefit Rate (CR + PR + SD), patients/N” value ([3]; AITL, KIR3DL2 wild type) of the same molecule?
The value was 2/7.

And the “Clinical Benefit Rate (CR + PR + SD)” value ([3]; AITL, KIR3DL2 wild type, N=7)?
Its value is 29%.

What about the “Overall Best Response: Partial Response (PR), number of patients” value ([3]; AITL, KIR3DL2 wild type, N=7) of the same molecule?
The value was 2.

What about the “Overall Best Response: Progressive Disease (PD), number of patients” value ([3]; AITL, KIR3DL2 wild type, N=7) of the same molecule?
Its value is 5.

And the “Overall Response Rate (CR + PR)” value ([3]; AITL, KIR3DL2 wild type, N=7)?
The value was 29%.

What about the “objective responses: number of complete responses (CR)” value (from here on “objective responses: number … (CR)”) [3, 9] of the same molecule?
The value was 2.

What about the “objective responses: number of partial responses (PR)” value (“objective responses: number … (PR)” below) [3, 9] of the same molecule?
Its value is 1.

What about the “objective responses: number … (CR)” value ([3]; FIG. 1, 9 AITL patients, carriers of F202L mutant of KIR2DL1) of the same molecule?
Its value is 2.

And the “objective responses: number … (CR)” value ([3]; FIG. 1, 9 AITL patients, carriers of G179R mutant of KIR2DL1)?
Its value is 1.

What about the “objective responses: number … (PR)” value ([3]; FIG. 1, 9 AITL patients, carriers of N178D mutant of KIR2DL1) of the same molecule?
The value was 1.

And the “objective responses: number … (CR)” value ([3]; FIG. 1, 9 AITL patients, carriers of R197T mutant of KIR2DL1)?
The value was 2.

And the “objective responses: number … (CR)” value [3, 10]?
Its value is 1.

What about the “objective responses: number … (PR)” value [3, 10] of the same molecule?
The value was 1.

And the “objective responses: number … (CR)” value [3, 11]?
Its value is 2.

And the “objective responses: number … (PR)” value [3, 11]?
The value was 1.

And the “objective responses: number … (CR)” value [3, 12]?
Its value is 2.

What about the “objective responses: number … (PR)” value [3, 12] of the same molecule?
The value was 2.

What about the “objective responses: number … (CR)” value [3, 13] of the same molecule?
The value was 2.

And the “objective responses: number … (PR)” value [3, 13]?
The value was 2.

And the ORR [3, 14]?
Its ORR is 80%.

And the “objective responses: number … (CR)” value [3, 14]?
The value was 2.

What about the “objective responses: number … (PR)” value [3, 14] of the same molecule?
Its value is 2.

What about the “objective responses: number … (CR)” value [3, 15] of the same molecule?
Its value is 4.

And the “objective responses: number … (PR)” value [3, 15]?
Its value is 2.

What about the ORR [4] of the same molecule?
Its ORR is 11%.

And the “objective responses: number of CR” value [4]?
Its value is 1.

And the “objective responses: number of progressive disease (PD)” value [4]?
Its value is 8.

And the safety and tolerability [5]?
The safety and tolerability was “manageable safety profile; also recorded: reasonably well tolerated in man”.
